Laboratory results from PMC10148881, “Recognition of an Ala-rich C-degron by the E3 ligase Pirh2” (Nature Communications, 2023).
Numbering of substitutions follows the chain as printed. Where two headings read alike, the source gives them in different places. Ends that are not written are not given here. Peptide text beside a SMILES is read from it.

Columns and labels:
[1] = target: T1, Pirh2 (NTD + RING) (Homo sapiens, UniProt Q96PM5); assay: ITC of degron peptides with Pirh2 NTD + RING; type: binding
T1 construct: Pirh2 NTD + RING (residues 1–189); 8xHis-SUMO (N, cleaved yes); made in house; host or cells: E. coli BL21 (DE3)
T1 sequence (Q96PM5 1-189): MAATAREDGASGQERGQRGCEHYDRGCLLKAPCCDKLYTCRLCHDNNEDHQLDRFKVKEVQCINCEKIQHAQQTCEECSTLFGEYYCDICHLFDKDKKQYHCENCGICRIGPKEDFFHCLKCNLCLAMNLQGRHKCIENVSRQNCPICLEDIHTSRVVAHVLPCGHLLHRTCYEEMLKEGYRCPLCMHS
Description: The DNA fragments corresponding to human full-length Pirh2 (residues 1–261), Pirh2 NTD + RING (residues 1–189), Pirh2 NTD (residues 1–137), Pirh2 RING + CTD (residues 138–261), Pirh2 RING (residues 138–189) and Pirh2 CTD (residues […]) were cloned by seamless cloning into the pET28-MKH8SUMO vector (Addgene Plasmid #79526), which contains an 8× His-SUMO tag followed by a Tobacco etch virus (TEV) cleavage site. The DNA fragment of Pirh2 (residues 15–191)-linker (GSGSG)-polyAla (AAAAAA) was cloned into the pGEX vector, which contains a GST tag followed by a TEV cleavage site. The recombinant plasmids were transformed into E. coli BL21 (DE3) and the expression of the target proteins was induced with 0.2 mM isopropyl β-D-1-thiogalactopyranoside (IPTG) supplemented with 100 μM ZnCl2 at 18 °C overnight. Cells were harvested by centrifugation and resuspended in lysis buffer (20 mM Tris-HCl pH 8.5, 400 mM NaCl, 5% v/v glycerol, 10 μM ZnCl2 and 2 mM β-mercaptoethanol). The cells were lysed by sonication on ice and the lysates were clarified by centrifugation at 14,000 rpm for 40 min at 4 °C. The lysate containing GST tagged Pirh2-linker-polyAla was collected to incubate with GST beads for 1 h, and nonspecifically bound proteins were washed out by lysis buffer. The GST tag was proteolytically cleaved by adding the TEV protease to the GST beads overnight at 4 °C and the TEV protease was removed by passing through the Ni‐NTA column. The other supernatants were collected to incubate with Ni-NTA beads for 1 h at 4 °C. Nonspecifically bound proteins were washed out of Ni-NTA beads by washing buffer (20 mM Tris-HCl pH 8.5, 400 mM NaCl and 25 mM imidazole pH 8.5) and the fusion proteins were eluted by elution buffer (20 mM Tris-HCl pH 8.5, 400 mM NaCl and 300 mM imidazole pH 8.5). The SUMO tag was cleaved by TEV protease with a molar ration of 1: 20 in dialysis buffer (20 mM Tris-HCl pH 8.5 and 300 mM NaCl) at 4 °C overnight. The samples were reloaded onto the Ni-NTA column to remove the cleaved SUMO tag and TEV protease. Finally, all of the acquired proteins were further purified by size exclusion chromatography (Superdex 200 Increase 10/300 GL, GE healthcare), which was pre-equilibrated with gel-filtration buffer (20 mM Tris-HCl pH 7.5, 150 mM NaCl, 10 μM ZnCl2 and 1 mM DTT). Purified proteins were concentrated and stored at −80 °C for later use. Expression and purification of the mutants were performed in the same way as wild-type proteins.
Isothermal titration calorimetry (ITC) measurements were performed at 16 °C using a MicroCal PEAQ-ITC instrument (Malvern Panalytical). Proteins and peptides were prepared in an ITC buffer (20 mM Tris-HCl pH 7.5, 150 mM NaCl and 10 μM Zn^2+). ITC experiments were performed by titrating 1.5 μL (with the exception of the first injection of 0.5 μL) of peptides (0.6–1.0 mM) into cell containing 180–220 μM proteins, with a spacing time of 90 s and a reference power of 10 μcal s^−1. The titration data were analyzed using the one-site binding model from MicroCal PEAQ-ITC Analysis Software version 1.30. All ITC assays were repeated at least three times independently with similar results.

[2] = target: T2, full-length Pirh2 (Homo sapiens, UniProt Q96PM5); assay: ITC of degron peptide with full-length Pirh2; conditions: 16 °C, 20 mM Tris-HCl pH 7.5, 150 mM NaCl, 10 μM Zn2+, one-site binding model, repeated at least three times
T2 construct: human full-length Pirh2 (residues 1–261); 8xHis-SUMO (N, cleaved yes); made in house; host or cells: E. coli BL21 (DE3)
T2 sequence (Q96PM5 1-261): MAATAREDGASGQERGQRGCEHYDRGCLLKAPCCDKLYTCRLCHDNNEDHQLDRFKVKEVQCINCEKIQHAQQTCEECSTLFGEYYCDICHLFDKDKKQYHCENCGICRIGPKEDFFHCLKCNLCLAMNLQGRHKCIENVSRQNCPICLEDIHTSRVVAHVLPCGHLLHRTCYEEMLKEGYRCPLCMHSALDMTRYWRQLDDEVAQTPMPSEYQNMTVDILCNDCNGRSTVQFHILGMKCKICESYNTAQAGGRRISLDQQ
Description: (§1) The DNA fragments corresponding to human full-length Pirh2 (residues 1–261), Pirh2 NTD + RING (residues 1–189), Pirh2 NTD (residues 1–137), Pirh2 RING + CTD (residues 138–261), Pirh2 RING (residues 138–189) and Pirh2 CTD (residues 187–261) were cloned by seamless cloning into the pET28-MKH8SUMO vector (Addgene Plasmid #79526), which contains an 8× His-SUMO tag followed by a Tobacco etch virus (TEV) cleavage site. The DNA fragment of Pirh2 (residues 15–191)-linker (GSGSG)-polyAla (AAAAAA) was cloned into the pGEX vector, which contains a GST tag followed by a TEV cleavage site. The recombinant plasmids were transformed into E. coli BL21 (DE3) and the expression of the target proteins was induced with 0.2 mM isopropyl β-D-1-thiogalactopyranoside (IPTG) supplemented with 100 μM ZnCl2 at 18 °C overnight. Cells were harvested by centrifugation and resuspended in lysis buffer (20 mM Tris-HCl pH 8.5, 400 mM NaCl, 5% v/v glycerol, 10 μM ZnCl2 and 2 mM β-mercaptoethanol). The cells were lysed by sonication on ice and the lysates were clarified by centrifugation at 14,000 rpm for 40 min at 4 °C. […]
(§2) Isothermal titration calorimetry (ITC) measurements were performed at 16 °C using a MicroCal PEAQ-ITC instrument (Malvern Panalytical). […] The titration data were analyzed using the one-site binding model from MicroCal PEAQ-ITC Analysis Software version 1.30. […]

[3] = target: T3, Pirh2 NTD (Homo sapiens, UniProt Q96PM5); assay: ITC of degron peptide with Pirh2 NTD; conditions: 16 °C, 20 mM Tris-HCl pH 7.5, 150 mM NaCl, 10 μM Zn2+, one-site binding model, repeated at least three times
T3 construct: Pirh2 NTD (residues 1–137); 8xHis-SUMO (N, cleaved yes); made in house; host or cells: E. coli BL21 (DE3)
T3 sequence (Q96PM5 1-137): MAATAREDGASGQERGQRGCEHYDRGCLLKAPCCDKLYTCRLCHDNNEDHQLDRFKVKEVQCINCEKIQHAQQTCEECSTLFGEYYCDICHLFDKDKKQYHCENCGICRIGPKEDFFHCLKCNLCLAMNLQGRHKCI
Description: as §1, §2

[4] = target: T4, Pirh2 R54A (Homo sapiens, UniProt Q96PM5, R54A); assay: ITC of Ala6/C-degron peptide with mutant Pirh2 R54A; type: binding; conditions: Fig. 4a
T4 construct: Pirh2 NTD + RING (residues 1–189); 8xHis-SUMO (N, cleaved yes); made in house; host or cells: E. coli BL21 (DE3)
T4 sequence (Q96PM5 1-189 R54A): T1 sequence (Q96PM5 1-189) with R54A
Description: as §1, §2

[5] = target: T5, Pirh2 D94A (Homo sapiens, UniProt Q96PM5, D94A); assay: ITC of Ala6/C-degron peptide with mutant Pirh2 D94A; type: binding; conditions: Fig. 4a
T5 construct: Pirh2 NTD + RING (residues 1–189); 8xHis-SUMO (N, cleaved yes); made in house; host or cells: E. coli BL21 (DE3)
T5 sequence (Q96PM5 1-189 D94A): T1 sequence (Q96PM5 1-189) with D94A
Description: as §1, §2

[6] = target: T6, Pirh2 I107D (Homo sapiens, UniProt Q96PM5, I107D); assay: ITC of Ala6/C-degron peptide with mutant Pirh2 I107D; type: binding; conditions: Fig. 4a
T6 construct: Pirh2 NTD + RING (residues 1–189); 8xHis-SUMO (N, cleaved yes); made in house; host or cells: E. coli BL21 (DE3)
T6 sequence (Q96PM5 1-189 I107D): T1 sequence (Q96PM5 1-189) with I107D
Description: as §1, §2

[7] = target: T7, Pirh2 S155D (Homo sapiens, UniProt Q96PM5, S155D); assay: ITC of Ala6/C-degron peptide with mutant Pirh2 S155D; type: binding; conditions: Fig. 4a
T7 construct: Pirh2 NTD + RING (residues 1–189); 8xHis-SUMO (N, cleaved yes); made in house; host or cells: E. coli BL21 (DE3)
T7 sequence (Q96PM5 1-189 S155D): T1 sequence (Q96PM5 1-189) with S155D
Description: as §1, §2

[8] = ITC, 16 °C, 20 mM Tris-HCl pH 7.5, 150 mM NaCl, 10 μM Zn2+, one-site binding model, repeated at least three times, NB = no detectable binding under our experimental conditions, read-out: KD

Compound	Kd [1, 8] [µM]	further results
C[C@H](N)C(=O)N[C@@H](C)C(=O)N[C@@H](C)C(=O)N[C@@H](C)C(=O)O [AAAA] (H-AAAA-OH)	7.4	
YKTSTAAAAA		Kd [1]: 0.5 µM
YKTSAAVA	13	
YKTSAKAA	5.5	
YKTSAAIA	13	
C[C@H](N)C(=O)N[C@@H](C)C(=O)N[C@@H](C)C(=O)O [AAA]	> 100	

The next lines start with results.

Kd [1, 8] [µM]	Compound	further results
4.5	YKTSSAAA	
3	YKTSASAA	
2.5	C[C@H](N)C(=O)N[C@@H](C)C(=O)N[C@@H](C)C(=O)N[C@@H](C)C(=O)N[C@@H](C)C(=O)O [AAAAA]	
0.5	YKTSATAAAA	
2.8	YKTSALAA	
0.9	C[C@H](N)C(=O)N[C@@H](C)C(=O)N[C@@H](C)C(=O)N[C@@H](C)C(=O)N[C@@H](C)C(=O)N[C@@H](C)C(=O)O [AAAAAA]	
0.5	YKTSAAAAAA [Ala6/C-degron]	Kd [2]: 0.9 µM; Kd [3]: 5.5 µM; Kd [4]: > 100 µM; Kd [5]: 3 µM; Kd [6]: 9.1 µM; Kd [7]: 4.5 µM
0.9	YKTSAPAA	
